Assays:
[1] = target: Serotonin 1 (5-HT1) receptor (Rattus norvegicus) (UniProt P28564+P30940+P19327+P28565); assay: 5HT1/R Eurofins-Panlabs selectivity data (BI); assay type: protein assay; conditions: Compound concentration 10.0 uM
[2] = target: Adrenergic receptor alpha-1 (Rattus norvegicus) (UniProt P15823+P23944+P43140); assay: ALPHA1/R Eurofins-Panlabs selectivity data (BI); assay type: protein assay; conditions: Compound concentration 10.0 uM
[3] = target: Calcitonin-gene-related peptide receptor, CALCRL/RAMP1 (Homo sapiens) (UniProt O60894+Q16602); assay: CGRP/HU Eurofins-Panlabs selectivity data (BI); assay type: protein-complex assay; conditions: Compound concentration 10.0 uM
[4] = target: Leukotriene C4 synthase (Cavia porcellus) (UniProt A6XA80); assay: LTC4SYN Eurofins-Panlabs selectivity data (BI); conditions: Compound concentration 10.0 uM
[5] = target: Phospholipase A2 (Sus scrofa) (UniProt A0A8D1VEY7); assay: PLA2 Eurofins-Panlabs selectivity data (BI); conditions: Compound concentration 10.0 uM
Sequence of Phospholipase A2 (Sus scrofa) (A0A8D1VEY7 as listed by the source): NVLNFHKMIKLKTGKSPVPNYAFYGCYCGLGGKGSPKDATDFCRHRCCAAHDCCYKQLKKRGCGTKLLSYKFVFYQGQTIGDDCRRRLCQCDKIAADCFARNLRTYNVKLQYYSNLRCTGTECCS

[6] = tested on: Tyrosine-protein kinase ABL1 (Homo sapiens), P00519 [Q252H]; conditions: Compound concentration 1000.0 nM
[7] = target: 5'-AMP-activated protein kinase catalytic subunit alpha-1 (Homo sapiens) (UniProt Q13131); conditions: Compound concentration 1000.0 nM
[8] = target: Tyrosine-protein kinase Blk (Homo sapiens) (UniProt P51451); conditions: Compound concentration 1000.0 nM
[9] = target: Protein-tyrosine kinase 6 (Homo sapiens) (UniProt Q13882); conditions: Compound concentration 1000.0 nM
[10] = target: Serine/threonine-protein kinase BRSK2 (Homo sapiens) (UniProt Q8IWQ3); conditions: Compound concentration 1000.0 nM
[11] = target: Calcium/calmodulin-dependent protein kinase type 1B (Homo sapiens) (UniProt Q6P2M8); conditions: Compound concentration 1000.0 nM
[12] = target: Cyclin-dependent kinase 2 (Homo sapiens) (UniProt P24941); conditions: Compound concentration 1000.0 nM
[13] = target: Cyclin-dependent kinase 4 (Homo sapiens) (UniProt P11802); conditions: Compound concentration 1000.0 nM
[14] = target: Cyclin-dependent kinase 9 (Homo sapiens) (UniProt P50750); conditions: Compound concentration 1000.0 nM
[15] = target: Dual specificity protein kinase CLK2 (Homo sapiens) (UniProt P49760); conditions: Compound concentration 1000.0 nM
[16] = target: Death-associated protein kinase 2 (Homo sapiens) (UniProt Q9UIK4); conditions: Compound concentration 1000.0 nM
[17] = target: Serine/threonine-protein kinase DCLK2 (Homo sapiens) (UniProt Q8N568); conditions: Compound concentration 1000.0 nM
[18] = target: Serine/threonine-protein kinase DCLK3 (Homo sapiens) (UniProt Q9C098); conditions: Compound concentration 1000.0 nM
[19] = target: Eukaryotic translation initiation factor 2-alpha kinase 1 (Homo sapiens) (UniProt Q9BQI3); conditions: Compound concentration 1000.0 nM
[20] = target: Ephrin type-B receptor 2 (Homo sapiens) (UniProt P29323); conditions: Compound concentration 1000.0 nM
[21] = target: Ephrin type-B receptor 6 (Homo sapiens) (UniProt O15197); conditions: Compound concentration 1000.0 nM
[22] = target: Receptor tyrosine-protein kinase erbB-2 (Homo sapiens) (UniProt P04626); conditions: Compound concentration 1000.0 nM
[23] = target: Cyclin-G-associated kinase (Homo sapiens) (UniProt O14976); conditions: Compound concentration 1000.0 nM
[24] = target: Insulin receptor-related protein (Homo sapiens) (UniProt P14616); conditions: Compound concentration 1000.0 nM
Sequence of Insulin receptor-related protein (Homo sapiens) (P14616 27-742 limits assumed): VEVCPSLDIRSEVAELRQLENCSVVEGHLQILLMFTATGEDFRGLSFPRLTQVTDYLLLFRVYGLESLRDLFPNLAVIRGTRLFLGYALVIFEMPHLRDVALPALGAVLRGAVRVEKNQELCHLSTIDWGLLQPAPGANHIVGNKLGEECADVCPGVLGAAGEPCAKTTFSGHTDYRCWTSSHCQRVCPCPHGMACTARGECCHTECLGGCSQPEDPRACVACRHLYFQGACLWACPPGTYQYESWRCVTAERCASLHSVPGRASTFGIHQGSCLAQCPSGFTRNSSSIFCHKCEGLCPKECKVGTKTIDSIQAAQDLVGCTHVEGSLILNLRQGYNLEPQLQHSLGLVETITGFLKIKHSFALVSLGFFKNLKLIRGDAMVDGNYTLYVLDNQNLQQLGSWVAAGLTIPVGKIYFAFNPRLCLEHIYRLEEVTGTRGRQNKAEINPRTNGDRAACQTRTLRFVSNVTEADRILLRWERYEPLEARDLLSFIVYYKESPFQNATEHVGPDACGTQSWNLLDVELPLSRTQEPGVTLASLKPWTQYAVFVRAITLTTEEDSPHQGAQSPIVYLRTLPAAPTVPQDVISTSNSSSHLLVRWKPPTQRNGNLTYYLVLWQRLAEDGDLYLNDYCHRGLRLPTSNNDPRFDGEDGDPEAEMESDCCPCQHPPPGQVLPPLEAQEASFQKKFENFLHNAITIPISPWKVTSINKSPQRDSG
Sequence of Insulin receptor-related protein (Homo sapiens) (P14616 747-1297 limits assumed): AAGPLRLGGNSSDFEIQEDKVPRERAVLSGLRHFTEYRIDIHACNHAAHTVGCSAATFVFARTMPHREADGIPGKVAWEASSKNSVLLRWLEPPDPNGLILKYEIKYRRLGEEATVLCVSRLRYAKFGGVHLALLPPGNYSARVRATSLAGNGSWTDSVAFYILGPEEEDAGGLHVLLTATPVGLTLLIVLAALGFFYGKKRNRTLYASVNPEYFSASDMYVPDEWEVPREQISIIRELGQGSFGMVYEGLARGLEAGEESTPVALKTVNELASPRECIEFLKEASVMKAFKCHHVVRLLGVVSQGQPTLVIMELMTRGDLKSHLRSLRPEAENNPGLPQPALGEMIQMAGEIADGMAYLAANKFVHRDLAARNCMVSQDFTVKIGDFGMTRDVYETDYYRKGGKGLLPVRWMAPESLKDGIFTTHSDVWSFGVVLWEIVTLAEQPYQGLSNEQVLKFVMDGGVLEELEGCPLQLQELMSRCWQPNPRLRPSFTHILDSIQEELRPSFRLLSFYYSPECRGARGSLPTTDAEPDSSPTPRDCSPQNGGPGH

[25] = tested on: Mast/stem cell growth factor receptor Kit (Homo sapiens), P10721 [V559D]; conditions: Compound concentration 1000.0 nM
[26] = target: Serine/threonine-protein kinase MARK2 (Homo sapiens) (UniProt Q7KZI7); conditions: Compound concentration 1000.0 nM
[27] = target: Myosin light chain kinase (Homo sapiens) (UniProt Q32MK0); conditions: Compound concentration 1000.0 nM
Sequence of Myosin light chain kinase (Homo sapiens) (Q32MK0 whole entry): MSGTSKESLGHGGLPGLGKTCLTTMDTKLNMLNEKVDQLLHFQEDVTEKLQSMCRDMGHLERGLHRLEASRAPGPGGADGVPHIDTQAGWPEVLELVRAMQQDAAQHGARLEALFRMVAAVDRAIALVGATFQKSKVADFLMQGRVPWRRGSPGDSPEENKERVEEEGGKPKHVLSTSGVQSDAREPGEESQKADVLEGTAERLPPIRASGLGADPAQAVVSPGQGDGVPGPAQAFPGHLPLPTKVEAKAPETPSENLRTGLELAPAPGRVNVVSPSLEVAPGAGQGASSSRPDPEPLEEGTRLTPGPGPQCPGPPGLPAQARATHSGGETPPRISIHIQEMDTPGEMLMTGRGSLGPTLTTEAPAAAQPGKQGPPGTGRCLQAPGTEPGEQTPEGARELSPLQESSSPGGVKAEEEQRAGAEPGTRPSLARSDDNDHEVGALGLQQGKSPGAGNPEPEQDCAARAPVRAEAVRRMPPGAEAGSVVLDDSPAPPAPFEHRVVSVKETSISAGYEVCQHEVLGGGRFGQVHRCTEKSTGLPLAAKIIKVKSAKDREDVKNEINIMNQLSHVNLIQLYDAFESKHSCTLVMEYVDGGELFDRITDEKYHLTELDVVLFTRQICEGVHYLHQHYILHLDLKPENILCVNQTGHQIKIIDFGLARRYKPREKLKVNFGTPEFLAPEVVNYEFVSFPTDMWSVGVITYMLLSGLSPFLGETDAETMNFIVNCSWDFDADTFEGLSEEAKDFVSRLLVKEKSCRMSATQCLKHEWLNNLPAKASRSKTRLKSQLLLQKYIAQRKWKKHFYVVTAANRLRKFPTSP

[28] = target: Serine/threonine-protein kinase 26 (Homo sapiens) (UniProt Q9P289); conditions: Compound concentration 1000.0 nM
[29] = target: Myosin light chain kinase family member 4 (Homo sapiens) (UniProt Q86YV6); conditions: Compound concentration 1000.0 nM
[30] = tested on: Phosphatidylinositol 4,5-bisphosphate 3-kinase catalytic subunit alpha isoform (Homo sapiens), P42336 [Q546K]; conditions: Compound concentration 1000.0 nM
[31] = target: Serine/threonine-protein kinase PLK4 (Homo sapiens) (UniProt O00444); conditions: Compound concentration 1000.0 nM
Sequence of Serine/threonine-protein kinase PLK4 (Homo sapiens) (O00444 whole entry): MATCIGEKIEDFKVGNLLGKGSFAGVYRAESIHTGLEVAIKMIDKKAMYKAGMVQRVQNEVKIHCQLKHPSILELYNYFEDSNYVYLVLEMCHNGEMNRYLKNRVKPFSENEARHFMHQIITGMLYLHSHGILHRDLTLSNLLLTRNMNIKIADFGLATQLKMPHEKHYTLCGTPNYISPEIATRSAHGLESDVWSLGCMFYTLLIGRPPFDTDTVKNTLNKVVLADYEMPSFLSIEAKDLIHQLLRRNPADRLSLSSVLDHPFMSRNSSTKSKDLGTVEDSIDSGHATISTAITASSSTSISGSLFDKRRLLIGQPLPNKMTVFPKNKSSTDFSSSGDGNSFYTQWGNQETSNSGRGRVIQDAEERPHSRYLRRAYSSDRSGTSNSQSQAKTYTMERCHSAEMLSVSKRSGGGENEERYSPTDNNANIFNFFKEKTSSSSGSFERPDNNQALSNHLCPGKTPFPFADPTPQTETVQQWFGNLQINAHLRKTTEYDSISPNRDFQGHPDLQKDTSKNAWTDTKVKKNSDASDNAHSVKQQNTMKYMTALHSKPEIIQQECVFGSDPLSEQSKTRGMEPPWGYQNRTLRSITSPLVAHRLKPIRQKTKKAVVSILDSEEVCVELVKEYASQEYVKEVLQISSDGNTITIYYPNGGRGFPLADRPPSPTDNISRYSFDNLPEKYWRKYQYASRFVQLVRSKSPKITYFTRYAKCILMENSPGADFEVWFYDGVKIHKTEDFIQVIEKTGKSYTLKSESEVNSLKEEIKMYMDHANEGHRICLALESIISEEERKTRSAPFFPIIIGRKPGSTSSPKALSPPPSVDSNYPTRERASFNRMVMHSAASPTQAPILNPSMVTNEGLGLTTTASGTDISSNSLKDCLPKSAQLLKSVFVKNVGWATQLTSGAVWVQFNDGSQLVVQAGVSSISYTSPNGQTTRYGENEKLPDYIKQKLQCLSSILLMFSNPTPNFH

[32] = target: Serine/threonine-protein kinase D2 (Homo sapiens) (UniProt Q9BZL6); conditions: Compound concentration 1000.0 nM
Sequence of Serine/threonine-protein kinase D2 (Homo sapiens) (Q9BZL6 whole entry): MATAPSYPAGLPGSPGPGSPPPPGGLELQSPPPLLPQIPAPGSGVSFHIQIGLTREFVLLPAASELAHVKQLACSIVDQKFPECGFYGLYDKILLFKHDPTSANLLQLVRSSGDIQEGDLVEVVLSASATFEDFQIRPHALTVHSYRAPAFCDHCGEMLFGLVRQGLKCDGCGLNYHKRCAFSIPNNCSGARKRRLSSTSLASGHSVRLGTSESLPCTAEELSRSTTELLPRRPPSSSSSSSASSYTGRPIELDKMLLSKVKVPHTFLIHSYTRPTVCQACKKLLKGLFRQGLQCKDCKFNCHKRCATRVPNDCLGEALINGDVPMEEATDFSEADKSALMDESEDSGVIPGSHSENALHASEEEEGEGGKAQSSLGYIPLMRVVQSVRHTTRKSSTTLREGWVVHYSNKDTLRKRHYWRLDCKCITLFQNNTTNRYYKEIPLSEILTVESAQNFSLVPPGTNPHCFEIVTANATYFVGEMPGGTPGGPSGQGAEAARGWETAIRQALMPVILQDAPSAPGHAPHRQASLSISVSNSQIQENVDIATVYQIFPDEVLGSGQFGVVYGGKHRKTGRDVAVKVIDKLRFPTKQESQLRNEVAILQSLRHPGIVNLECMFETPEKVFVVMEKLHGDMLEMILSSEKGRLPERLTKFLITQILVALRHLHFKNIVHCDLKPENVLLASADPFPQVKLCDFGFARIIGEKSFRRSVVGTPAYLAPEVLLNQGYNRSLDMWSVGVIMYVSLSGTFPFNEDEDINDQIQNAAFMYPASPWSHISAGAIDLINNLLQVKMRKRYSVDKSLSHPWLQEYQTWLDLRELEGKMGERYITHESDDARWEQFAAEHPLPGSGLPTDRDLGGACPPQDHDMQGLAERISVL

[33] = target: Receptor-interacting serine/threonine-protein kinase 2 (Homo sapiens) (UniProt O43353); conditions: Compound concentration 1000.0 nM
[34] = target: Rho-associated protein kinase 1 (Homo sapiens) (UniProt Q13464); conditions: Compound concentration 1000.0 nM
[35] = target: Rho-associated protein kinase 2 (Homo sapiens) (UniProt O75116); conditions: Compound concentration 1000.0 nM
[36] = target: Ribosomal protein S6 kinase alpha-6 (Homo sapiens) (UniProt Q9UK32); conditions: Compound concentration 1000.0 nM
Sequence of Ribosomal protein S6 kinase alpha-6 (Homo sapiens) (Q9UK32 whole entry): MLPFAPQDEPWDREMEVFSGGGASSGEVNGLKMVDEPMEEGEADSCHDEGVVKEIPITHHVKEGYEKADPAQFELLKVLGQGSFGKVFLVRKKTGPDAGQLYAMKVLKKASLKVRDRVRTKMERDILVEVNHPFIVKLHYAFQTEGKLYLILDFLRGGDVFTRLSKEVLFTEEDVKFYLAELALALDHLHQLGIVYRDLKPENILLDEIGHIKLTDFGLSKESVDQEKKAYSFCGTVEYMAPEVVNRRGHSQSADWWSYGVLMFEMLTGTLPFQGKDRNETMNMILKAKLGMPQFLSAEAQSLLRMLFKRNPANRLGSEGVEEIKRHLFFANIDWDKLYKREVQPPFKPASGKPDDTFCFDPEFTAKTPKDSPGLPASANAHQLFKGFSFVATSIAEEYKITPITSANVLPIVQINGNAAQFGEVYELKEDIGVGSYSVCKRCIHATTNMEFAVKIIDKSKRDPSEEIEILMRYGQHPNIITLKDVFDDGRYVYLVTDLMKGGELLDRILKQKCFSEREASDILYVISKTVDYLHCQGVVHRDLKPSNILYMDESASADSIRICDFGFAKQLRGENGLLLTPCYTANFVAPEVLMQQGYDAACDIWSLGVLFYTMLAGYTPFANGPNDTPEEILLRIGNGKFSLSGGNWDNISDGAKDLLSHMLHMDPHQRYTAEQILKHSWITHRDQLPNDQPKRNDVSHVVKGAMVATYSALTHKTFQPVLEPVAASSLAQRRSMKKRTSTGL

[37] = target: Ribosomal protein S6 kinase beta-1 (Homo sapiens) (UniProt P23443); conditions: Compound concentration 1000.0 nM
[38] = target: Serine/threonine-protein kinase TNNI3K (Homo sapiens) (UniProt Q59H18); conditions: Compound concentration 1000.0 nM
[39] = target: Testis-specific serine/threonine-protein kinase 1 (Homo sapiens) (UniProt Q9BXA7); conditions: Compound concentration 1000.0 nM
[40] = target: Wee1-like protein kinase (Homo sapiens) (UniProt P30291); conditions: Compound concentration 1000.0 nM
[41] = target: Serine/threonine-protein kinase 32B (Homo sapiens) (UniProt Q9NY57); conditions: Compound concentration 1000.0 nM
[42] = target: Tyrosine-protein kinase ZAP-70 (Homo sapiens) (UniProt P43403); conditions: Compound concentration 1000.0 nM
[43] = target: Sodium-dependent noradrenaline transporter (Homo sapiens) (UniProt P23975); conditions: Compound concentration 10.0 uM
[44] = target: Muscarinic acetylcholine receptor M4 (Homo sapiens) (UniProt P08173); conditions: Compound concentration 10.0 uM
[45] = target: Sigma non-opioid intracellular receptor 1 (Homo sapiens, UniProt Q99720); conditions: Compound concentration 10.0 uM
Sequence of Sigma non-opioid intracellular receptor 1 (Q99720 whole entry): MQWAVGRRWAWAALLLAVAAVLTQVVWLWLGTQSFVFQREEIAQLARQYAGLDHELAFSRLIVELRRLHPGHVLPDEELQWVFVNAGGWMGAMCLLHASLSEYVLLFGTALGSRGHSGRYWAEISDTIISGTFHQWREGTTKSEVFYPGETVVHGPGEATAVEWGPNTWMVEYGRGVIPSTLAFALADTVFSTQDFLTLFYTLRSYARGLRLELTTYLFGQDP

CCOCCn1cc(C(=O)Nc2ccc(-n3nc(-c4cccnc4)cc3C(F)(F)F)cn2)ccc1=O [BI 1935]
inactive: residual activity [1] 117% | residual activity [2] 94% | residual activity [3] 105% | residual activity [4] 112% | residual activity [5] 96% | residual activity [6] 73% | residual activity [7] 100% | residual activity [8] 89% | residual activity [9] 100% | residual activity [10] 100% | residual activity [11] 79% | residual activity [12] 100% | residual activity [13] 81% | residual activity [14] 97% | residual activity [15] 86% | residual activity [16] 93% | residual activity [17] 89% | residual activity [18] 100% | residual activity [19] 84% | residual activity [20] 61% | residual activity [21] 94% | residual activity [22] 100% | residual activity [23] 100% | residual activity [24] 100% | residual activity [25] 87% | residual activity [26] 100% | residual activity [27] 97% | residual activity [28] 81% | residual activity [29] 100% | residual activity [30] 95% | residual activity [31] 100% | residual activity [32] 100% | residual activity [33] 71% | residual activity [34] 74% | residual activity [35] 88% | residual activity [36] 100% | residual activity [37] 97% | residual activity [38] 100% | residual activity [39] 100% | residual activity [40] 100% | residual activity [41] 100% | residual activity [42] 67% | inhibition [43] -7.51% | inhibition [44] 4.25% | inhibition [45] 50%

Source: ChEMBL document CHEMBL4507283, “Data for DCP probe BI-1935” (2021)
